Experimental data reported in patent US20220047569A1, “METHOD AND COMPOUND FOR USE, IN TREATING AND/OR PREVENTING NETOSIS” (Jubilant EpiPad LLC, priority 2020, published 2022).
Counter-ions that a name gives are not always drawn.

These molecules were tested on Histone H3 Citrullination in Neutrophils (assay: Citrullination ELISA (Citrullinated Histone H3) in calcium ionophore stimulated neutrophils). Details: Neutrophil; human neutrophils, 25 μM calcium ionophore, CitH3 ELISA.
Assay type: cell-based
Protocol: Neutrophils were isolated according to the EasySep Direct Human Neutrophil Isolation Kit. In short, 50 mL of blood sample was drawn in a vacutainer containing K2EDTA from a healthy donor. To the whole blood, the isolation cocktail of 50 μL/mL was added. Then, in the next step 50 μL/mL of RapidSpheres™ was added to the sample. The sample was mixed evenly with the pipette and incubated for 10 minutes at room temperature. After incubation, PBS containing 1 mM EDTA was added at the ratio of 1:1 to the blood. Then the sample tube was incubated for 10 minutes. The enriched cell suspension was transferred into a new tube and RapidSpheres™ were added at 50 μL/mL to this suspension, mixed and incubated for 10 minutes at room temperature. At this step, the enriched cell suspension was carefully collected as a clear fraction into a fresh tube. Then, previous tube was replaced with the fresh tube containing enriched cell suspension. After the final separation, the clear solution of enriched cell suspension was carefully transferred to fresh tube which was ready to use for the experiment. These cells were then subjected to wash twice with plain RPMI 1640 media without Fetal Bovine Serum (FBS) and centrifuged at 1500 rpm for 5 minutes at room temperature. Cell counts were performed on each sample by Invitrogen cell counter. After the cell count, cell density was adjusted according to the experiment and re-suspended in complete RPMI media containing RPMI1640, 2% BSA and 1 mM CaCl2.
Freshly isolated neutrophils from human donor were seeded at a density of 0.5×10^6 cells in 400 μL cell suspension/well in a 24-well plate and cells were pre-incubated with the compound for 30 minutes by adding 50 μL of the 10× concentration to achieve the final 1× concentration of compound (10 μM, 1 μM and 0.1 μM). 1% DMSO was added in control wells. Then, the cells were stimulated in the presence and absence of calcium ionophore by adding 50 μL/well to achieve the final concentration of 25 μM. Upon incubation for 30 minutes with calcium ionophore, S7 nuclease was added to the wells and incubated for 10 minutes to disrupt NET DNA. Following incubation, 10 μL of 1 mM EDTA was added to inactivate nuclease. Cells were scrapped gently and transferred to the tubes, followed by centrifugation at 1500 rpm for 5 minutes. After centrifugation, supernatant was discarded, and 200 μL of lysis buffer containing PBS and 1× Protease inhibitor was added to the tubes. The obtained lysis was then subjected to mechanical shearing using Geno grinder by spin the plate at 2500 rpm for 10 minutes, followed by collection of supernatant and stored at −20° C. or immediately used for ELISA.
ELISA was performed as per Citrullinated Histone H3 ELISA Kit. All the buffer components from the kit were dissolved according to the manufactures protocol. ELISA Buffer Concentrate (10×) (Item No. 400060) and Wash Buffer Concentrate (400×) (Item No. 400060) along with polysorbate 20 (2000×) (Item No. 400035) was diluted to 1× with milliQ water. The standard for use in the ELISA was prepared as follows: • Obtain eight clean test tubes and label them, #1 through #8. Aliquot 4.9 mL of ELISA Buffer into tube #1. • Aliquot 500 μL of ELISA Buffer into the tubes #2-8. […] This tube is considered as blank, the lowest point on the standard curve.
100 μL of standards or diluted sample was added to the appropriate wells on the 96-well plate. Plates were covered with 96-well cover sheet and incubated for two hours at room temperature on an orbital shaker. The samples and standard were removed from the wells and washed four times with Wash Buffer. After the last wash, Anti-Histone H3 HRP Conjugate (Item No. 501441) (10×) stock solution was diluted in 1×ELISA buffer and 100 μL of the HRP Conjugate working solution was added to each well of the plate and incubated for one hour at room temperature on an orbital shaker. […]

First: N[C@@H]1CCCN(C(=O)c2cc3c4c(c2)nc(-c2cc5ccc(F)cc5n2Cc2ccc(F)cc2)n4CCO3)C1 [Compound 135, (R)-(3-aminopiperidin-1-yl)(2-(6-fluoro-1-(4-fluorobenzyl)-1H-indol-2-yl)-3,4-dihydro-5-oxa-1,2a-diazaacenaphthylen-7-yl)methanone]
Second: N[C@@H]1CCCN(C(=O)c2cc3c4c(c2)nc(-c2cc5ccccc5n2CC2CC2)n4CCO3)C1 [Compound 87, (R)-(3-aminopiperidin-1-yl)(2-(1-(cyclopropylmethyl)-1H-indol-2-yl)-3,4-dihydro-5-oxa-1,2a-diazaacenaphthylen-7-yl)methanone]
The IC50 of the first is lower: under 100 nM for the first, 100 to 1000 nM for the second.

Compared with `COc1ccc2cc(-c3nc4cc(C(=O)N5CCC[C@@H](N)C5)ccn4c3C)n(Cc3cccnc3)c2c1` [Compound 51, (R)-(3-aminopiperidin-1-yl)(2-(6-methoxy-1-(pyridin-3-ylmethyl)-1H-indol-2-yl)-3-methylimidazo[1,2-a]pyridin-7-yl)methanone], `COc1cccc(Cn2c(-c3nc4cc(C(=O)N5CCC[C@@H](N)C5)ccn4c3C)cc3ccc(F)cc32)c1` [Compound 70, (R)-(3-aminopiperidin-1-yl)(2-(6-fluoro-1-(3-methoxybenzyl)-1H-indol-2-yl)-3-methylimidazo[1,2-a]pyridin-7-yl)methanone] is lower in IC50: over 1000 nM for the first, under 100 nM for the second.

First: Cc1cc(C(=O)N2CCC[C@@H](N)C2)cc2nc(-c3cc4ccccc4n3Cc3ccccc3)c(C)n12 [Compound 26, (R)-(3-aminopiperidin-1-yl)(2-(1-benzyl-1H-indol-2-yl)-3,5-dimethylimidazo[1,2-a]pyridin-7-yl)methanone]
Second: Cc1cc(C(=O)N2CCC[C@@H](N)C2)cc2nc(-c3cc4ccccc4n3CC3CC3)c(C)n12 [Compound 25, (R)-(3-aminopiperidin-1-yl)(2-(1-(cyclopropylmethyl)-1H-indol-2-yl)-3,5-dimethylimidazo[1,2-a]pyridin-7-yl)methanone]
The IC50 of the first is lower: under 100 nM for the first, 100 to 1000 nM for the second. The first is the more potent here.

Compared with `Cc1c(-c2cc3ccc(F)cc3n2CC2CC2)nc2cc(C(=O)N3CCC[C@@H](N)C3)ccn12` [Compound 52, (R)-(3-aminopiperidin-1-yl)(2-(1-(cyclopropylmethyl)-6-fluoro-1H-indol-2-yl)-3-methylimidazo[1,2-a]pyridin-7-yl)methanone trifluoroacetic acid salt], `Cc1c(-c2cc3ccccc3n2CC2CCC2)nc2cc(C(=O)N3CCC[C@@H](N)C3)ccn12` [Compound 61, (R)-(3-aminopiperidin-1-yl)(2-(1-(cyclobutylmethyl)-1H-indol-2-yl)-3-methylimidazo[1,2-a]pyridin-7-yl)methanone] is higher in IC50: 100 to 1000 nM for the first, over 1000 nM for the second. The first is the more potent here.

First: COc1ccc2cc(-c3nc4cc(C(=O)N5CCC[C@@H](N)C5)cc5c4n3CCN5C)n(CC3CC3)c2c1 [Compound 160, (R)-(3-aminopiperidin-1-yl)(2-(1-(cyclopropylmethyl)-6-methoxy-1H-indol-2-yl)-6-methyl-5,6-dihydro-4H-imidazo[1,5,4-de]quinoxalin-8-yl)methanone]
Second: COc1ccc2c(c1)cc(-c1nc3cc(C(=O)N4CCC[C@@H](N)C4)cc4c3n1CCO4)n2CC1CC1 [Compound 146, (R)-(3-aminopiperidin-1-yl)(2-(1-(cyclopropylmethyl)-5-methoxy-1H-indol-2-yl)-3,4-dihydro-5-oxa-1,2a-diazaacenaphthylen-7-yl)methanone]
The IC50 of the first is lower: under 100 nM for the first, 100 to 1000 nM for the second. The first is the more potent here.

First: CC(=O)N1CCn2c(-c3cc4ccccc4n3CC3CC3)nc3cc(C(=O)N4CCC[C@@H](N)C4)cc1c32 [Compound 171, (R)-1-(8-(3-aminopiperidine-1-carbonyl)-2-(1-(cyclopropylmethyl)-1H-indol-2-yl)-4,5-dihydro-6H-imidazo[1,5,4-de]quinoxalin-6-yl)ethan-1-one]
Second: N[C@@H]1CCCN(C(=O)c2cc3c4c(c2)nc(-c2cc5c(F)cccc5n2CC2CC2)n4CCN3)C1 [Compound 166, (R)-(3-aminopiperidin-1-yl)(2-(1-(cyclopropylmethyl)-4-fluoro-1H-indol-2-yl)-5,6-dihydro-4H-imidazo[1,5,4-de]quinoxalin-8-yl)methanone]
The IC50 of the first is lower: under 100 nM for the first, 100 to 1000 nM for the second. The first is the more potent here.

`Cc1c(-c2cc3ccccc3n2Cc2ccc(F)cc2)nc2cc(C(=O)N3CCC[C@@H](NC(=O)/C=C/CN(C)C)C3)ccn12` [Compound 56, (R,E)-4-(dimethylamino)-N-(1-(2-(1-(4-fluorobenzyl)-1H-indol-2-yl)-3-methylimidazo[1,2-a]pyridine-7-carbonyl)piperidin-3-yl)but-2-enamide] and `COc1ccc(Cn2c(-c3nc4cc(C(=O)N5CCC[C@@H](N)C5)ccn4c3C)cc3ccc(F)cc32)cc1` [Compound 71, (R)-(3-aminopiperidin-1-yl)(2-(6-fluoro-1-(4-methoxybenzyl)-1H-indol-2-yl)-3-methylimidazo[1,2-a]pyridin-7-yl)methanone] cannot be ordered by IC50: over 1000 nM for the first, over 1000 nM for the second.

First: CC(C)Cn1c(-c2nc3cc(C(=O)N4CCC[C@@H](N)C4)cc4c3n2CCO4)cc2cccc(Cl)c21 [Compound 141, (R)-(3-aminopiperidin-1-yl)(2-(7-chloro-1-isobutyl-1H-indol-2-yl)-3,4-dihydro-5-oxa-1,2a-diazaacenaphthylen-7-yl)methanone]
Second: COCCn1c(-c2nc3cc(C(=O)N4CCC[C@@H](N)C4)cc4c3n2CCO4)cc2ccccc21 [Compound 106, (R)-(3-aminopiperidin-1-yl)(2-(1-(2-methoxyethyl)-1H-indol-2-yl)-3,4-dihydro-5-oxa-1,2a-diazaacenaphthylen-7-yl)methanone]
The IC50 of the first is higher: over 1000 nM for the first, 100 to 1000 nM for the second.

First: COc1cccc(Cn2c(-c3nc4cc(C(=O)N5CCC[C@@H](N)C5)ccn4c3C)cc3cc(F)ccc32)c1 [Compound 53, (R)-(3-aminopiperidin-1-yl)(2-(5-fluoro-1-(3-methoxybenzyl)-1H-indol-2-yl)-3-methylimidazo[1,2-a]pyridin-7-yl)methanone]
Second: COc1cccc(Cn2c(-c3nc4cc(C(=O)N5CCC[C@@H](N)C5)ccn4c3C)cc3ccccc32)c1 [Compound 42, (R)-(3-aminopiperidin-1-yl)(2-(1-(3-methoxybenzyl)-1H-indol-2-yl)-3-methylimidazo[1,2-a]pyridin-7-yl)methanone]
The IC50 of the first is higher: 100 to 1000 nM for the first, under 100 nM for the second. The second is the more potent here.

First: Cc1c(-c2cc3ccccc3n2Cc2cncnc2)nc2cc(C(=O)N3CCC[C@@H](N)C3)ccn12 [Compound 58, (R)-(3-aminopiperidin-1-yl)(3-methyl-2-(1-(pyrimidin-5-ylmethyl)-1H-indol-2-yl)imidazo[1,2-a]pyridin-7-yl)methanone trifluoroacetic acid salt]
Second: Cc1csc(Cn2c(-c3nc4cc(C(=O)N5CCC[C@@H](N)C5)ccn4c3C)cc3ccccc32)n1 [Compound 41, (R)-(3-aminopiperidin-1-yl)(3-methyl-2-(1-((4-methylthiazol-2-yl)methyl)-1H-indol-2-yl)imidazo[1,2-a]pyridin-7-yl)methanone]
The IC50 of the first is higher: over 1000 nM for the first, 100 to 1000 nM for the second.

Compared with `CCn1c(-c2nc3cc(C(=O)N4CCC[C@@H](N)C4)ccn3c2C)cc2ccc(OC)cc21` [Compound 67, (R)-(3-aminopiperidin-1-yl)(2-(1-ethyl-6-methoxy-1H-indol-2-yl)-3-methylimidazo[1,2-a]pyridin-7-yl)methanone], `COc1cc2cc(-c3nc4cc(C(=O)N5CCC[C@@H](N)C5)cc5c4n3CCO5)n(CC3CC3)c2cc1OC` [Compound 103, (R)-(3-aminopiperidin-1-yl)(2-(1-(cyclopropylmethyl)-5,6-dimethoxy-1H-indol-2-yl)-3,4-dihydro-5-oxa-1,2a-diazaacenaphthylen-7-yl)methanone] is lower in IC50: over 1000 nM for the first, under 100 nM for the second. The second is the more potent here.
